Experimental findings from US20220227815A1, “COMPOSITIONS AND METHODS USEFUL IN TREATING BRAIN DISEASES” (University of Kansas, priority 2019, published 2022) are described below.

In series [1] the test system is blood-brain barrier (BBB). The experiment in a line: In vivo brain delivery of IRdye800CW-IgG mAb, NIRF quantification in brain homogenates. The note with it: C57BL/6 mice; for average amount of IgG mAb in the brain: IRdye800CW-IgG mAb 21.6 nmol/kg i.v. alone or with 13 μmol/kg peptide, 15 min circulation, n=3; for brain delivery of IgG mAb compared to control (IgG mAb alone): IgG mAb 21.6 nmol/kg + 13 μmol/kg peptide i.v. As to the method:
(§1) The activity of each peptide in enhancing blood-brain barrier (BBB) penetration was evaluated by delivering IRdye800CW donkey anti-goat IgG mAb in C57BL/6 mice; the amounts of mAb in the brain were determined using NIRF imaging. Each group contained 3 mice per group (n=3) with a mixture of male and female mice, selected randomly for each arm of the study. The injection solution was prepared by adding 600 μL PBS into 0.5 mg lyophilized IgG mAb; then, approximately 1.5 mg lyophilized peptide was added into the mixture yielding the injectable formulation. A 100 μL solution of a mixture containing IgG mAb (21.6 nmol/kg) along with 13 μmol/kg peptide of the present technology was administered via tail vein. As a control, 100 μL of IgG mAb alone was administered via i.v. route. After the delivered molecules had been circulating for 15 min, the mice were sacrificed; then, a mixture of PBS with 0.5% Tween20 was administered for cardiac perfusion to remove the blood and […] molecules into the brain microvessels. The brain and other organs such as lung, heart, spleen, liver, and kidney were harvested and rinsed with PBS. The isolated organs were scanned with Odyssey® CLx for mAb quantification.
The brain deposition of IgG mAb was also quantified by NIRF imaging in brain homogenates. The isolated brains were mechanically homogenized in 2.0 mL of PBS. To make the standard solutions, IRDye800CW IgG mAb stock solution (70 μg/mL) was prepared; it was then diluted with various amounts of PBS to make six different mAb concentrations. To generate a calibration curve, the brain homogenate (200 μL) was aliquoted out to a 96-well plate. 10 μL of each concentration of IgG mAb was added to three different wells of blank brain homogenates. The standard spiked homogenates were at a range of 10-200 ng/mL IgG mAb in brain homogenate. The wells were scanned using the Odyssey® CLx scanner, and the signal intensities vs. concentrations of mAb per gram of brain were used to generate a calibration curve.
(§2) The BBB modulatory activities of ADTC5 and HAV6 to enhance brain delivery of IRdyeR800CW-labeled lysozyme, albumin, IgG mAb, and fibronectin were compared in C57BL/6 mice. The proteins with or without 13 μmol/kg HAV6 or ADTC5 were administered via tail vein injection. For lysozyme, the delivered doses were 21.6 and 54 nmol/kg. For albumin, IgG mAb, and fibronectin, the dose used was 21.6 nmol/kg. Fifteen minutes after IgG mAb administration with or without a peptide of the present technology, the animals were sacrificed and PBS with 0.5% Tween-20 was administered for cardiac perfusion to remove the remaining protein in the BBB microvessels. The brain and other organs such as lung, heart, spleen, liver and kidney were harvested and rinsed with PBS. Protein depositions in the brain and other organs were quantified by NIRF imaging using an Odyssey CLx NIRF scanner.
(§3) A second quantification method was done using brain homogenates. In this case, the brains were homogenized in 2.0 mL PBS by mechanical disruption and 200 μL of homogenized brain (n=8) was aliquoted to a 96-well plate followed by quantification using the Odyssey CLx scanner. The signal intensity was compared to calibration curve and normalized to brain weight and homogenate volume.

The nature of series [2]: Peripheral organ deposition of IRdye800CW-labeled proteins by NIRF imaging. In kind it is in vivo, C57BL/6 mice. The note with it: for IgG mAb deposition in other organs (liver, kidney, heart, spleen, lungs) compared to control: IgG mAb 21.6 nmol/kg + 13 μmol/kg peptide i.v., NIRF signal intensity, n=3. As to the method: as §1, §2
The subject of series [3] is blood-brain barrier (BBB). The experiment in a line: In vivo brain delivery of IRdye800CW-lysozyme (15 kDa). Set-up: species or system C57BL/6 mice. The note with it: for amount of lysozyme in the brain: IRdye800CW-lysozyme 54 nmol/kg i.v. alone or with 13 μmol/kg peptide, C57BL/6 mice. The procedure: Preparation of Stock and Standard Curves. The stock solution for IRDye800CW protein (i.e., lysozyme, 70 μg/mL) was prepared and stored at −80° C. The stock solution was later diluted with PBS to make the required standard solutions. To produce a standard calibration curve, 200 μL of blank brain homogenates was spiked with 10 μL standard solutions of various concentrations to yield a linear range from 0.5 to 50 ng/mL. The same method was employed for the sample's quality control (QC).
as §2, §3
(§4) Brain Perfusion. After euthanasia using CO2 chamber, mice were immediately subjected to cervical dislocation followed by removal of IRdye800CW-labeled protein from the brain capillaries using perfusion solution. In this case, a solution containing PBS with 0.2% Tween-20 was transcardially perfused to remove the remaining protein molecules in the brain endothelial microvessels. After perfusion, the brain was removed from the skull and subjected to capillary depletion.

Series [4] deals with blood-brain barrier (BBB). The series is described as follows: In vivo brain delivery of IRdye800CW-albumin (65 kDa). The note with it: IRdye800CW-albumin 21.6 nmol/kg i.v. alone or with 13 μmol/kg peptide, C57BL/6 mice. The procedure:
as §2, §3, §4

Series [5] concerns blood-brain barrier (BBB). The experiment in a line: In vivo brain delivery of IRdye800CW-fibronectin (220 kDa). Set-up: species or system C57BL/6 mice. Particulars: IRdye800CW-fibronectin 21.6 nmol/kg i.v. alone or with ADTC5 13 μmol/kg. As to the method: as §2, §3, §4
Setting [6] is: albumin 21.6 nmol/kg with 13 μmol/kg peptide, NIRF.

Values joined by “and” are separate entries in the source; they are usually repeats but may differ in a detail not shown here. Equal values may be shown once. “Also recorded” adds a separate entry of the source. Non-standard residues stand in square brackets, D forms with d. Residues, ends and D or L forms follow the SMILES beside them. ξ: configuration not given here. Thr(3ξ) = CC(O)[C@H](N)C(=O)O

On to `CC(C)[C@@H]1NC(=O)[C@H](C)NC(=O)[C@H](Cc2c[nH]cn2)NC(=O)[C@H](CO)NC(=O)[C@H](C(C)C)NC(=O)[C@@H]2CCCN2C(=O)[C@@H]2CCCN2C(=O)[C@H](C(C)O)NC1=O` (stereo partly drawn) (cyclo(AV[Thr(3ξ)]PPVSH)), for which, in series [1], the “average amount of IgG mAb in the brain” value is listed as 15.7±0.8 pmol/g brain and the “brain delivery of IgG mAb compared to control (IgG mAb alone)” value was “significantly better than in the PBS control; also recorded: significant difference”. For the same compound, the “IgG mAb deposition in other organs (liver, kidney, heart, spleen, lungs) compared to control” value (from here on “IgG mAb deposition … compared to control”) in series [2] was “significant increases in deposition of IgG mAb in liver, kidney, spleen, and lungs; also recorded: significant differences in the IgG mAb signal in lung, kidney, spleen, and liver”.

For `CC(=O)N[C@@H](CO)C(=O)N[C@@H](Cc1c[nH]cn1)C(=O)N[C@@H](C)C(=O)N[C@H](C(=O)N[C@@H](CO)C(=O)N[C@@H](CO)C(N)=O)C(C)C` [HAV6, acetyl-SHAVSS-NH2] (Ac-SHAVSS-NH2), in series [1], the “average amount of IgG mAb in the brain” value is 3.4±0.4 pmol/g brain and 3.42±0.5 pmol/g brain and 3.4 ± 0.5 pmol/g brain; the “brain delivery of IgG mAb compared to control (IgG mAb alone)” value is “did not enhance; also recorded: not able to deliver mAb”. The “IgG mAb deposition … compared to control” value in series [2] was “no significant difference”. For the same compound, the “distribution of mAb into liver” value in series [2] (IgG mAb 21.6 nmol/kg with 13 μmol/kg peptide, compared to control) is reported as “about the same”. In addition, in series [2] (setting [6]), the “deposition of albumin in the spleen compared to control” value is on record as “enhanced” and the “distribution of albumin into the liver compared to control” value was “significantly enhanced”. Besides, in series [2] (lysozyme 54 nmol/kg with 13 μmol/kg peptide, NIRF), the “lysozyme deposition in the kidney” value is listed as “followed by the HAV6-treated group”. Besides, the “amount of lysozyme in the brain” value in series [3] is listed as 8.3±2.5 pmol/g brain. Also, in series [3] (lysozyme 21.6 nmol/kg with 13 μmol/kg peptide), the “brain delivery of lysozyme compared to lysozyme alone” value is recorded as “no significant improvement”. Also, the “amount of albumin in the brain” value in series [4] turned out to be 15.5±3.1 pmol/g brain.

For `CC(C)[C@@H]1NC(=O)[C@H](C)NC(=O)[C@H](Cc2c[nH]cn2)NC(=O)[C@H](CO)NC(=O)[C@H](CO)NC(=O)[C@H](CO)NC1=O` [HAVN1, cyclo(1,6)SHAVSS] (cyclo(AVSSSH)), in series [1], the “average amount of IgG mAb in the brain” value came to 8.6±0.5 pmol/g brain and the “brain delivery of IgG mAb compared to control (IgG mAb alone)” value is on record as “significantly enhanced; also recorded: significant difference”. The “IgG mAb deposition … compared to control” value in series [2] was “no significant difference”.

For the compound `CC(C)[C@@H]1NC(=O)[C@H](C)NC(=O)[C@H](Cc2c[nH]cn2)NC(=O)[C@H](CO)NC(=O)[C@H](CO)NC1=O` [HAVN2, cyclo(1,5)SHAVS] (cyclo(AVSSH)), in series [1], the “average amount of IgG mAb in the brain” value worked out at 8.8±0.6 pmol/g brain and the “brain delivery of IgG mAb compared to control (IgG mAb alone)” value is on record as “significantly enhanced; also recorded: significant difference”. The “IgG mAb deposition … compared to control” value in series [2] is given as “no significant difference”.

With `CC(=O)N[C@H](C(=O)N1CCC[C@H]1C(=O)N1CCC[C@H]1C(=O)N[C@H](C(=O)N[C@@H](CO)C(=O)N[C@@H](Cc1c[nH]cn1)C(=O)N[C@@H](C)C(=O)N[C@H](C(N)=O)C(C)C)C(C)C)C(C)O` (stereo partly drawn) [linear ADTHAV], in series [1], the “average amount of IgG mAb in the brain” value is 11.8±0.5 pmol/g brain and the “brain delivery of IgG mAb compared to control (IgG mAb alone)” value is listed as “significantly better than in the PBS control; also recorded: significant difference”. In addition, the “IgG mAb deposition … compared to control” value in series [2] is “significant effects on the distribution of IgG mAb in the heart and kidney; also recorded: significance differences in the IgG mAb signal intensities for kidney and heart”.

Regarding Albumin [reference compound], the “amount of albumin in the brain” value in series [4] amounted to 11.8 ± 1.0 pmol/g brain; in series [4] (listed as albumin), 11.8±1.0 pmol/g brain.

On to Lysozyme [reference compound], for which the entries for the “amount of lysozyme in the brain” value in series [3] and in series [3] (listed as lysozyme) were 0 ± 0 pmol/g brain and “below the detection limits”, respectively.

Take fibronectin [reference compound]: the “NIRF signal of fibronectin in brain homogenates” value in series [5] was 33.026±2.080 ×10^3 A.U.
